Experimental data published in patent US20050037335A1, “Method for identifying novel transcriptional regulatory proteins” (priority 1999, published 2005).

Columns and labels:
tTA-45 (L170V) = biological target: T1, tTA-45 (L170V) (Escherichia coli, UniProt P04483, L170V); assay: Inducer-dependent repression of luciferase activity by tTA-45, transient transfection in HeLa cells; type: cell-based
T1 construct: expressed in transfected cells; host or cells: HeLa cells, transient transfection
Experimental: One mutant that was isolated from this screen, tTA-45, was sequenced and found to carry an amino acid exchange at position 170 from a leucine to a valine (L170V). The induction efficiency of tTA-45 in response to varying concentrations of Tc or Dox was determined in transient transfection assays in HeLa cells. The inducer concentration leading to 50% repression of the luciferase activity (IC50) was determined and is described in Table 3 below.

tTA (Wildtype) = biological target: T2, tTA (Wildtype) (Escherichia coli, UniProt P04483); assay: Inducer-dependent repression of luciferase activity by tTA, transient transfection in HeLa cells; type: cell-based
T2 construct: expressed in transfected cells; host or cells: HeLa cells, transient transfection
T2 sequence (P04483 whole entry, added parts left off): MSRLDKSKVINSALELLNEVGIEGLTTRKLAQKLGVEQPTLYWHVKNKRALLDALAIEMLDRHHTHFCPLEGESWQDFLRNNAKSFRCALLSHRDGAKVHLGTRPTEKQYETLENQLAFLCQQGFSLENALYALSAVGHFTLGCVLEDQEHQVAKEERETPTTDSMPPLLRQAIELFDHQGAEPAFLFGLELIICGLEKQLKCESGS

T1 sequence (P04483 other isoform, or with tags, fused parts or gaps L170V): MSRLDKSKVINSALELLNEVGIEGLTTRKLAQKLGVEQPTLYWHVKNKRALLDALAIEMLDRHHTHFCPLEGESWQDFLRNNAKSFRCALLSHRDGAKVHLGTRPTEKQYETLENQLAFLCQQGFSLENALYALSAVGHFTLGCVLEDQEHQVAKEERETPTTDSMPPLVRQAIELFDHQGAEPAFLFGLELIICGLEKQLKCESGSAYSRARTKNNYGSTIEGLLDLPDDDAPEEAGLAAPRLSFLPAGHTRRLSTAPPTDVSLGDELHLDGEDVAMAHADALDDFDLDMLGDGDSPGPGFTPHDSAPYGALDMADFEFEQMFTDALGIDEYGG

Compound	IC50 (tTA-45 (L170V)) [nM]	IC50 (tTA (Wildtype)) [nM]
C[C@H]1c2cccc(O)c2C(=O)C2=C(O)[C@]3(O)C(=O)C(C(N)=O)=C(O)[C@@H](N(C)C)[C@@H]3[C@@H](O)[C@@H]21 [Dox, doxycycline]	11.3	1.35
CN(C)[C@@H]1C(O)=C(C(N)=O)C(=O)[C@@]2(O)C(O)=C3C(=O)c4c(O)cccc4[C@@](C)(O)[C@H]3C[C@@H]12 [Tc, tetracycline]	608	6.75
